These results are taken from ChEMBL document CHEMBL1154755, “Discovery of 6alpha-ethyl-23(S)-methylcholic acid (S-EMCA, INT-777) as a potent and selective agonist for the TGR5 receptor, a novel target for diabesity” (J Med Chem, 2009).

Data set [1] can be described thus: Metabolic stability in bile fistula rat model assessed as intact drug level recovered in bile at 1 umol/min/kg, iv over 1 hr. In kind it is ADME, organism-based. The note with it: in vivo.
Data set [2] can be described thus: Metabolic stability in bile fistula rat model assessed as intact drug level recovered in bile at 1 umol/min/kg administered intraduodenally over 1 hr. In kind it is ADME. The note with it: in vivo, other.
Data set [3] is described as follows: Metabolic stability in human stool broth culture assessed as unmodified drug level after 12 hrs. It is filed as ADME. The note with it: read-out: Stability.

`CC[C@H]1[C@@H](O)[C@@H]2[C@H](C[C@H](O)[C@]3(C)[C@@H]([C@H](C)C[C@@H](C)C(=O)O)CC[C@@H]23)[C@@]2(C)CC[C@@H](O)C[C@@H]12`: the Stability in data set [1] is reported as 65 %Idose; in data set [2] it was 68 %Idose.
As to `CC[C@H]1[C@@H](O)[C@@H]2[C@H](C[C@H](O)[C@]3(C)[C@@H]([C@H](C)C[C@H](C)C(=O)O)CC[C@@H]23)[C@@]2(C)CC[C@@H](O)C[C@@H]12`, the Stability in data set [1] worked out at 93 %Idose; in data set [2] it was 94 %Idose. Also, the remaining at 12 h in data set [3] was over 95%.
Consider `C[C@H](CCC(=O)O)[C@H]1CC[C@H]2[C@@H]3[C@H](O)C[C@@H]4C[C@H](O)CC[C@]4(C)[C@H]3CC[C@]12C` [CHENODIOL], for which the Stability in data set [1] is given as 4 %Idose; in data set [2], 3 %Idose.
In the case of `C[C@H](CCC(=O)O)[C@H]1CC[C@H]2[C@@H]3[C@H](O)C[C@@H]4C[C@H](O)CC[C@]4(C)[C@H]3C[C@H](O)[C@]12C` [CHOLIC ACID], the Stability is on record as 8 %Idose in data set [1] and 12 %Idose in data set [2].
